According to patent US5463118A, “N-(l-aspartyl)amino alcohol derivative and sweetener containing the same” (Takasago International Corporation, priority 1987, dated 1995):
Where two headings read alike, the source gives them in different places. Where a SMILES comes first, the peptide text is derived from it.

How the values were obtained:
[1] = degree of sweetness based on sucrose of compounds of differing absolute configuration; settings: for Degree of sweetness based on sucrose: Table 2
Description: Compounds of absolute configurations (a) and (b) of (RS,RS) and (S,S) were prepared by way of trial, and the degrees and characteristics of sweetness thereof were evaluated.

[2] = sweetness characteristics in standard cola beverage, nine panelists; settings: cola beverage stored at 37° C. for 26 days, 1 extremely poor to 9 extremely excellent, sweetener at 30 to 520 ppm
Description: The sweetness characteristics were evaluated in the following manner.
A standard beverage was prepared by adding the following materials to 1600 ml of carbonated water:
Various sweeteners were added to the standard beverage each at a definite concentration. The beverages thus obtained were stored at 37° C. for 26 days and then evaluated by nine panelists according to the following criterion.

[3] = among dipeptide esters known so far; cited from earlier work
[4] = versus APM; cited from earlier work
[5] = solubility in water; assay type: physicochemical
[6] = stability of aqueous solution (percent remaining by HPLC, 0.1M phosphate buffer pH 4.0, 80° C.); assay type: physicochemical; settings: general statement
Description: Each of compounds A and B, APM and L-aspartyl-DL-aminomalonic acid methyl fenchyl ester as disclosed in JP-A-49-30566, which will be abbreviated as "AMF" hereinafter, was dissolved in a 0.1M phosphate buffer solution (pH 4.0) at a concentration of 0.2%. The obtained solution was maintained at 80° C. and the percent remaining was monitored by high performance liquid chromatography with a lapse of time to thereby compare the stabilities of these solutions with each other.

[7] = sweetness characteristics of diluted aqueous solution
[8] = degree of sweetness of L-aspartyl fenchyl amino alcohols by absolute configuration at (a) and (b); settings: for Degree of sweetness: R1 methyl, R2 fenchyl, absolute configuration (a),(b)
Description: Subsequent studies by the inventors have disclosed that the sweetness essentially depends on the absolute configuration at the (a) and (b) positions in the following formula (i). For example, compounds of the following general formula: [drawing 1]
wherein R1 is methyl group while R2 is fenchyl group:
The absolute configurations at the (a) and (b) positions are determined by resolving amino alcohol derivatives with tartaric acid to thereby give p-bromobenzoic acid amide derivatives of the following formula (ii) and then analyzing the crystal structures thereof with X-rays: [drawing 2]

[9] = taste intensity threshold value by a limit method, panel of five skilled flavorists; settings: for Taste intensity threshold value: dissolved in water, limit method, five skilled flavorists; for Degree of sweetness: sucrose = 1, from Table 1
Description: Each of (2R,3R)-3-N-(L-aspartyl)amino-1-2-butanol (XVI') obtained in Example 2, 2-8), which will be referred to as "compound A" hereinafter, the (2R,3R)-3-N-(L-aspartyl)amino-1-2-butanol (XVII) obtained in Example 1, 1-15), which will be referred to as "compound B" hereinafter, APM and sucrose was dissolved in water. The threshold value of each compound was determined by a limit method by a panel consisting of five skilled flavorists.

## CC(NC(=O)[C@@H](N)CC(=O)O)C(O)C[C@@H]1C[C@@H]2CC[C@@]1(C)C2 (stereo partly shown)
[1]
  Degree of sweetness based on sucrose: 800 time
[2]
  Average score: 5.1

## CC(NC(=O)[C@@H](N)CC(=O)O)C(O)C[C@@H]1[C@@H]2CC[C@@H](C2)[C@H]1C (stereo partly shown)
[1]
  Degree of sweetness based on sucrose: 850 time
[2]
  Average score: 5.0

## COC(=O)C(NC(=O)[C@@H](N)CC(=O)O)C(=O)OC1C2(C)CCC(C2)C1(C)C (mixture of isomers) [AMF, L-aspartyl-DL-aminomalonic acid methyl fenchyl ester]
[3]
  degree of sweetness, in words: highest degree of sweetness
[4]
  stability at 80° C. and at a pH of 4: inferior to APM in stability at 80 °C and at a pH of 4

## C[C@@H](NC(=O)[C@@H](N)CC(=O)O)[C@H](O)CC1CC2CCC1(C)C2 (stereo partly drawn) [(2R,3R)-3-N-(L-aspartyl)amino-1-(1-methyl-2-norbornyl)-2-butanol]
[5]
  solubility in water: highly soluble in water
[6]
  heat stability: good in heat stability
  stability in acidic aqueous solutions: excellent in stability in acidic aqueous solutions
[7]
  disagreeable tastes (bitter taste, bad taste, unpleasant aftertaste): almost no disagreeable tastes
  sweetness characteristics: closely similar to those of sucrose

## CC1C2CCC(C2)C1C[C@@H](O)[C@@H](C)NC(=O)[C@@H](N)CC(=O)O (stereo partly drawn) [(2R,3R)-3-N-(L-aspartyl)amino-1-(3-methyl-2-norbornyl)-2-butanol]
[5]
  solubility in water: highly soluble in water
[6]
  heat stability: good in heat stability
  stability in acidic aqueous solutions: excellent in stability in acidic aqueous solutions
[7]
  disagreeable tastes (bitter taste, bad taste, unpleasant aftertaste): almost no disagreeable tastes
  sweetness characteristics: closely similar to those of sucrose

## C[C@@H]1[C@H]2CC[C@H](C2)[C@H]1C[C@H](O)[C@H](C)NC(=O)[C@@H](N)CC(=O)O [(2S, 3S)-3-N-(L-aspartyl)amino-1-2-butanol]
[1]
  sweetness, in words: scarcely any sweetness
  Degree of sweetness based on sucrose: 0 time

## C[C@@H](NC(=O)[C@@H](N)CC(=O)O)[C@H](O)CC1C2(C)CCC(C2)C1(C)C (stereo partly drawn) [(R,R)]
[8]
  degree of sweetness, in words: highest degree of sweetness
  Degree of sweetness: 12,500

## C[C@@H](NC(=O)[C@@H](N)CC(=O)O)[C@@H](O)CC1C2(C)CCC(C2)C1(C)C (stereo partly drawn) [(R,S)]
[8]
  degree of sweetness, in words: scarcely any sweetness
  Degree of sweetness: 0

## C[C@H](NC(=O)[C@@H](N)CC(=O)O)[C@H](O)CC1C2(C)CCC(C2)C1(C)C (stereo partly drawn) [(S,R)]
[8]
  degree of sweetness, in words: scarcely any sweetness
  Degree of sweetness: 0

## C[C@H](NC(=O)[C@@H](N)CC(=O)O)[C@@H](O)CC1C2(C)CCC(C2)C1(C)C (stereo partly drawn) [(S,S)]
[8]
  degree of sweetness, in words: scarcely any sweetness
  Degree of sweetness: 0

## COC(=O)[C@H](Cc1ccccc1)NC(=O)[C@@H](N)CC(=O)O [APM, L-aspartyl-L-phenylalanine methyl ester, reference compound] (H-Asp-Phe-OMe)
[9]
  Taste intensity threshold value: 0.004%
  Degree of sweetness: 150 time
[1]
  Degree of sweetness based on sucrose: 250 time
[2]
  Average score: 5.8

## CC(NC(=O)[C@@H](N)CC(=O)O)C(O)C[C@@H]1C(C)(C)[C@@H]2CC[C@@]1(C)C2 (stereo partly drawn) [C, 3-N-(L-aspartyl)-amino-1-d-α-fenchyl-2-butanol]
[8]
  Degree of sweetness: 1,800
[1]
  Degree of sweetness based on sucrose: 1,800 time
[2]
  Average score: 4.1

## C[C@@H]1[C@H]2CC[C@H](C2)[C@H]1C[C@@H](O)[C@@H](C)NC(=O)[C@@H](N)CC(=O)O [Compound A, (2R,3R)-3-N-(L-aspartyl)amino-1-2-butanol]
[9]
  Taste intensity threshold value: 0.00024%
  Degree of sweetness: 2,500 time
[1]
  Degree of sweetness based on sucrose: 2,500 time
[2]
  Average score: 6.2

## C[C@@H](NC(=O)[C@@H](N)CC(=O)O)[C@H](O)C[C@@H]1C[C@@H]2CC[C@@]1(C)C2 [Compound B, (2R,3R)-3-N-(L-aspartyl)amino-1-2-butanol]
[9]
  Taste intensity threshold value: 0.00018%
  Degree of sweetness: 3,300 time
[1]
  Degree of sweetness based on sucrose: 3,300 time
[2]
  Average score: 6.3

## OC[C@H]1O[C@@](CO)(O[C@H]2O[C@H](CO)[C@@H](O)[C@H](O)[C@H]2O)[C@@H](O)[C@@H]1O [Sucrose, sucrose, reference compound]
[9]
  Taste intensity threshold value: 0.6%
  Degree of sweetness: 1 time
